The values below come from patent EP0516157A1, “Preparation of 6-0-alkylelsamicin A derivatives” (priority 1991, dated 1992).

In data set [1] the test system is murine melanoma B16-F10 cells. Kind of data set: In vitro cytotoxicity, neutral red staining after 72 hours. The conditions noted are these: for Cytotoxicity IC50: 72 hours incubation.
Protocol: (§2) For in vitro cytotoxicity experiment, murine melanoma B16-F10 cells were grown and maintained in Eagle's minimum essential medium (Nissui), which contains kanamycin (60 µg/ml), supplemented with heat-inactivated fetal calf serum (10%) and nonessential amino acids (0.6%) at 37°C under a humidified atmosphere in a 5% CO₂ incubator. Exponentially growing B16-F10 cells were harvested, counted and suspended in the culture medium at the concentration of 2.0x10⁴ cells/ml. The cell suspension (180 µl) was planted into wells of a 96-well microtiter plate and incubated for 24 hours. Test compounds (20 µl) were added to the wells and the plates were further incubated for 72 hours. The cytotoxic activity was colorimetrically determined at 540 nm after staining viable cells with neutral red solution.
Data set [2] relates to lymphocytic leukemia P388. Kind of data set: In vivo antitumor activity against P388 leukemia in mice. The conditions noted are these: for T/C % of MST: P388, female CDF1 mice, Q1Dx3 ip; for anti-P388 activity compared with elsamicin A / toxicity compared with elsamicin A: P388 system, in words. The method, then:
(§1) In vivo antitumor activity of the above fifteen derivatives was tested in the lymphocytic leukemia P388 and melanoma B16 systems. Female CDF₁ (for P388) and male BDF₁ (for B16) mice were inoculated by ip injection at 10⁶ P388 cells and 0.5 ml of a 10% B16 brei per mouse, respectively (day 0). […] The percent increase of median survival time (MST) of treated animals over that of untreated control animals was determined and reported as T/C %. Compounds showing T/C % values of 125 or greater are considered to have significant antitumor activity.

The subject of a further data set is melanoma B16. Kind of data set: In vivo antitumor activity against B16 melanoma in mice. The conditions noted are these: for No. of survivors/tested on day 50 / T/C % of MST: Q4Dx3 ip; for T/C % of MST: B16, male BDF1 mice. The method, then:
as §1

Data set [3] deals with murine melanoma B16-F10 cells.
Protocol: as §2

Read-outs that look alike come from different tables or passages of the source. Bounds are passed on as bounds.

Regarding `COc1c2cccc(OC3OC(C)C(O)C(C)(O)C3OC3OC(C)C(O)C(OC)C3N)c2c2oc(=O)c3c(C)ccc4oc(=O)c1c2c43` (centres unmarked) [Compound 7a, 6-O-Methylelsamicin A], the “Cytotoxicity IC50” value in data set [1] turned out to be 0.19 µg/mL.
Consider `CCOc1c2cccc(OC3OC(C)C(O)C(C)(O)C3OC3OC(C)C(O)C(OC)C3N)c2c2oc(=O)c3c(C)ccc4oc(=O)c1c2c43` (centres unmarked) [Compound 7b, 6-O-Ethylelsamicin A], for which the “T/C % of MST” value in data set [2] (0.1 mg/kg/day) came to 110%; in data set [2] (0.3 mg/kg/day), 125%; in data set [2] (1 mg/kg/day), 130%; in data set [2] (3 mg/kg/day), 150%; in data set [2] (10 mg/kg/day), 170%; in data set [2] (20 mg/kg/day) it was 170%. The “T/C % of MST” value is on record as 180% in data set [2] (40 mg/kg/day); 103% with melanoma B16 (0.1 mg/kg/day); 113% in the data set on melanoma B16 (0.3 mg/kg/day); 144% in the data set with melanoma B16 (1 mg/kg/day); 178% in the data set with melanoma B16 (3 mg/kg/day); “≧313%” in the data set with melanoma B16 (10 mg/kg/day). Further, the “anti-P388 activity compared with elsamicin A” value in data set [2] is “as active as elsamicin A”. Besides, the “toxicity compared with elsamicin A” value in data set [2] is reported as “seemed to be less toxic”. Besides, the “No. of survivors/tested on day 50” value in the data set on melanoma B16 (B16, 10 mg/kg/day) is listed as “(3/4)”. Moreover, the “chemotherapeutic activity in the B16 system” value with melanoma B16 (B16 system, in words) was “excellent chemotherapeutic activity”. Further, in data set [1], the “Cytotoxicity IC50” value was found to be 0.06 µg/mL. In data set [1] (in words, versus elsamicin A), the “cytotoxicity compared with the parent compound” value is “approximately equipotent cytotoxicity to the parent compound”.
`CCCOc1c2cccc(OC3OC(C)C(O)C(C)(O)C3OC3OC(C)C(O)C(OC)C3N)c2c2oc(=O)c3c(C)ccc4oc(=O)c1c2c43` (centres unmarked) [Compound 7c, 6-O-n-Propylelsamicin A]: the “T/C % of MST” value in data set [2] (0.1 mg/kg/day) was 105%; in data set [2] (0.3 mg/kg/day) it was 129%; in data set [2] (1 mg/kg/day), 133%; in data set [2] (3 mg/kg/day), 152%; in data set [2] (10 mg/kg/day), 152%; in data set [2] (20 mg/kg/day), 155%. Moreover, the “T/C % of MST” value in data set [2] (40 mg/kg/day) was found to be 159%. Besides, in data set [2], the “anti-P388 activity compared with elsamicin A” value is given as “as active as elsamicin A”. In data set [2], the “toxicity compared with elsamicin A” value was “seemed to be less toxic”. Also, the “cytotoxicity compared with the parent compound” value in data set [3] is recorded as “approximately equipotent cytotoxicity to the parent compound”. The “Cytotoxicity IC50” value in data set [1] was 0.03 µg/mL.
For the molecule `COC1C(N)C(OC2C(Oc3cccc4c(OC(C)C)c5c(=O)oc6ccc(C)c7c(=O)oc(c34)c5c67)OC(C)C(O)C2(C)O)OC(C)C1O` (centres unmarked) [Compound 7d, 6-O-Isopropylelsamicin A], the “T/C % of MST” value in data set [2] (0.1 mg/kg/day) came out at 95%; in data set [2] (0.3 mg/kg/day), 119%; in data set [2] (1 mg/kg/day) it was 124%; in data set [2] (3 mg/kg/day), 133%; in data set [2] (10 mg/kg/day) it was 148%. For the same molecule, the “Cytotoxicity IC50” value in data set [1] was 0.49 µg/mL.
As to `CCCCOc1c2cccc(OC3OC(C)C(O)C(C)(O)C3OC3OC(C)C(O)C(OC)C3N)c2c2oc(=O)c3c(C)ccc4oc(=O)c1c2c43` (centres unmarked) [Compound 7e, 6-O-n-Butylelsamicin A], the “T/C % of MST” value is on record as 110% in data set [2] (0.1 mg/kg/day); 124% in data set [2] (0.3 mg/kg/day); 133% in data set [2] (1 mg/kg/day); 152% in data set [2] (3 mg/kg/day); 162% in data set [2] (10 mg/kg/day); 141% in data set [2] (20 mg/kg/day). In addition, the “T/C % of MST” value was 164% in data set [2] (40 mg/kg/day); 123% in the data set on melanoma B16 (0.3 mg/kg/day); 127% in the data set with melanoma B16 (1 mg/kg/day); 160% in the data set on melanoma B16 (3 mg/kg/day); 213% with melanoma B16 (10 mg/kg/day). Also, the “anti-P388 activity compared with elsamicin A” value in data set [2] is “as active as elsamicin A”. In data set [2], the “toxicity compared with elsamicin A” value was “seemed to be less toxic”. In addition, the “cytotoxicity compared with the parent compound” value in data set [3] is recorded as “approximately equipotent cytotoxicity to the parent compound”. The “Cytotoxicity IC50” value in data set [1] is 0.03 µg/mL.
`CCCCCCOc1c2cccc(OC3OC(C)C(O)C(C)(O)C3OC3OC(C)C(O)C(OC)C3N)c2c2oc(=O)c3c(C)ccc4oc(=O)c1c2c43` (centres unmarked) [Compound 7f, 6-O-n-Hexylelsamicin A]: the “T/C % of MST” value in data set [2] (0.1 mg/kg/day) was found to be 100%; in data set [2] (0.3 mg/kg/day) it was 105%; in data set [2] (1 mg/kg/day), 120%; in data set [2] (3 mg/kg/day) it was 130%; in data set [2] (10 mg/kg/day), 140%; in the data set on melanoma B16 (0.1 mg/kg/day), 107%. Besides, the “T/C % of MST” value was found to be 111% in the data set on melanoma B16 (0.3 mg/kg/day), 129% in the data set with melanoma B16 (1 mg/kg/day), 132% with melanoma B16 (3 mg/kg/day) and 146% in the data set on melanoma B16 (10 mg/kg/day). Further, in data set [1], the “Cytotoxicity IC50” value turned out to be 0.11 µg/mL.
For the molecule `CCCCCCCCCCOc1c2cccc(OC3OC(C)C(O)C(C)(O)C3OC3OC(C)C(O)C(OC)C3N)c2c2oc(=O)c3c(C)ccc4oc(=O)c1c2c43` (centres unmarked) [Compound 7g, 6-O-n-Decylelsamicin A], the “T/C % of MST” value in data set [2] (0.3 mg/kg/day) is listed as 115%; in data set [2] (1 mg/kg/day), 105%; in data set [2] (3 mg/kg/day) it was 115%; in data set [2] (10 mg/kg/day), 100%; with melanoma B16 (0.3 mg/kg/day), 107%; in the data set on melanoma B16 (1 mg/kg/day), 126%. Further, the “T/C % of MST” value worked out at 153% with melanoma B16 (3 mg/kg/day) and 183% in the data set on melanoma B16 (10 mg/kg/day). Also, the “Cytotoxicity IC50” value in data set [1] was determined as 2.5 µg/mL.
On to `COC1C(N)C(OC2C(Oc3cccc4c(OCCCN5C(=O)c6ccccc6C5=O)c5c(=O)oc6ccc(C)c7c(=O)oc(c34)c5c67)OC(C)C(O)C2(C)O)OC(C)C1O` (centres unmarked) [Compound 7h, 6-O-(3-phthalimidopropyl)elsamicin A], for which the “T/C % of MST” value is given as 105% in data set [2] (0.1 mg/kg/day); 105% in data set [2] (0.3 mg/kg/day); 120% in data set [2] (1 mg/kg/day); 125% in data set [2] (3 mg/kg/day); 140% in data set [2] (10 mg/kg/day). For the same molecule, the “Cytotoxicity IC50” value in data set [1] was 0.71 µg/mL.
Turning to `COC1C(N)C(OC2C(Oc3cccc4c(OCCCN)c5c(=O)oc6ccc(C)c7c(=O)oc(c34)c5c67)OC(C)C(O)C2(C)O)OC(C)C1O` (centres unmarked) [Compound 7i, 6-O-(3-Aminopropyl)elsamicin A], the “T/C % of MST” value in data set [2] (0.3 mg/kg/day) came out at 105%; in data set [2] (1 mg/kg/day), 110%; in data set [2] (3 mg/kg/day) it was 110%; in data set [2] (10 mg/kg/day) it was 130%. The “Cytotoxicity IC50” value in data set [1] was found to be 2.3 µg/mL.
For `COc1c2cccc(OC3OC(C)C4OC(C)(C)OC4(C)C3OC3OC(C)C(O)C(OC)C3N)c2c2oc(=O)c3c(C)ccc4oc(=O)c1c2c43` (centres unmarked) [Compound 8a, 3',4'-O-Isopropylidene-6-O-methylelsamicin A], in data set [1], the “Cytotoxicity IC50” value was 0.08 µg/mL.
On to `CCCCCCOc1c2cccc(OC3OC(C)C4OC(C)(C)OC4(C)C3OC3OC(C)C(O)C(OC)C3N)c2c2oc(=O)c3c(C)ccc4oc(=O)c1c2c43` (centres unmarked) [Compound 8f, 6-O-n-Hexyl-3'4'-O-isopropylideneelsamicin A], for which the “T/C % of MST” value in data set [2] (0.1 mg/kg/day) is on record as 110%; in data set [2] (0.3 mg/kg/day), 110%; in data set [2] (1 mg/kg/day), 110%; in data set [2] (3 mg/kg/day), 115%; in data set [2] (10 mg/kg/day) it was 120%. Further, the “Cytotoxicity IC50” value in data set [1] came out at 0.9 µg/mL.
For `CCCCCCCCCCOc1c2cccc(OC3OC(C)C4OC(C)(C)OC4(C)C3OC3OC(C)C(O)C(OC)C3N)c2c2oc(=O)c3c(C)ccc4oc(=O)c1c2c43` (centres unmarked) [Compound 8g, 6-O-n-Decyl-3'4'-O-isopropylideneelsamicin A], the “T/C % of MST” value in data set [2] (0.3 mg/kg/day) is on record as 115%; in data set [2] (1 mg/kg/day) it was 105%; in data set [2] (3 mg/kg/day) it was 115%; in data set [2] (10 mg/kg/day) it was 100%. The “Cytotoxicity IC50” value in data set [1] turned out to be 2.9 µg/mL.
Turning to `COC1C(N)C(OC2C(Oc3cccc4c(OCCCN5C(=O)c6ccccc6C5=O)c5c(=O)oc6ccc(C)c7c(=O)oc(c34)c5c67)OC(C)C3OC(C)(C)OC32C)OC(C)C1O` (centres unmarked) [Compound 8h, 3'4'-O-Isopropylidene-6-O-(3-phthalimidopropyl)elsamicin A], the “T/C % of MST” value in data set [2] (0.1 mg/kg/day) amounted to 100%; in data set [2] (0.3 mg/kg/day), 110%; in data set [2] (1 mg/kg/day), 110%; in data set [2] (3 mg/kg/day), 120%; in data set [2] (10 mg/kg/day), 130%. In data set [1], the “Cytotoxicity IC50” value was 0.4 µg/mL.
For the molecule `COC1C(N)C(OC2C(Oc3cccc4c(OCCCN)c5c(=O)oc6ccc(C)c7c(=O)oc(c34)c5c67)OC(C)C3OC(C)(C)OC32C)OC(C)C1O` (centres unmarked) [Compound 8i, 6-O-(3-Aminopropyl)-3',4'-isopropylideneelsamicin A], the “T/C % of MST” value in data set [2] (0.3 mg/kg/day) is listed as 105%; in data set [2] (1 mg/kg/day), 110%; in data set [2] (3 mg/kg/day), 120%; in data set [2] (10 mg/kg/day), 135%. For the same molecule, the “Cytotoxicity IC50” value in data set [1] was 1.8 µg/mL.
In the case of `COC1C(N)C(OC2C(Oc3cccc4c(O)c5c(=O)oc6ccc(C)c7c(=O)oc(c34)c5c67)OC(C)C(O)C2(C)O)OC(C)C1O` (centres unmarked) [Elsamicin A (1), Elsamicin A], the “T/C % of MST” value in data set [2] (0.1 mg/kg/day) is 124%; in data set [2] (0.3 mg/kg/day), 138%; in data set [2] (1 mg/kg/day), 155%; in data set [2] (3 mg/kg/day) it was 180%; in data set [2] (10 mg/kg/day) it was 206%; in data set [2] (20 mg/kg/day), “Tox”. Further, the “T/C % of MST” value with melanoma B16 (0.1 mg/kg/day) is recorded as 120%; in the data set on melanoma B16 (0.3 mg/kg/day) it was 139%; in the data set on melanoma B16 (1 mg/kg/day), 178%; with melanoma B16 (3 mg/kg/day), at least 216%; in the data set with melanoma B16 (10 mg/kg/day) it was at least 305%. Besides, the “No. of survivors/tested on day 50” value is listed as 2/24 with melanoma B16 (B16, 3 mg/kg/day) and 9/24 with melanoma B16 (B16, 10 mg/kg/day). In data set [1], the “Cytotoxicity IC50” value is 0.05 µg/mL.
